Measured values as given in ChEMBL document CHEMBL4177664, “Macrocyclic pyrrolobenzodiazepine dimers as antibody-drug conjugate payloads” (Bioorg Med Chem Lett, 2017).

Tests used:
NCI-H226 = test: Antiproliferative activity against human NCI-H226 cells after 72 hrs by MTS assay; format: functional, cell-based; details: NCI-H226, 72 h
NCI-N87 = test: Antiproliferative activity against human NCI-N87 cells after 72 hrs by MTS assay; format: functional, cell-based; details: NCI-N87, 72 h
OVCAR-3 = test: Antiproliferative activity against human OVCAR3 cells after 72 hrs by MTS assay; format: functional, cell-based; details: OVCAR-3, 72 h
HCT-116 = test: Antiproliferative activity against human HCT116 cells after 72 hrs by MTS assay; format: functional, cell-based; details: HCT-116, 72 h
HCT-116/VM46 = test: Antiproliferative activity against human HCT116/VM46 cells after 72 hrs by MTS assay; format: functional, cell-based; details: HCT-116/VM46, 72 h
[1] = Stability in rat serum measured up to 24 hrs; format: ADME, cell-free
[2] = Stability in human serum measured up to 24 hrs; format: ADME, cell-free
[3] = Stability in mouse serum measured up to 24 hrs; format: ADME, cell-free
[4] = Aqueous solubility of the compound at pH 5.5; format: physicochemical; details: aqueous medium

SMILES | IC50 (NCI-H226) [nM] | IC50 (NCI-N87) [nM] | IC50 (OVCAR-3) [nM] | IC50 (HCT-116) [nM] | IC50 (HCT-116/VM46) [nM] | Stability [1] | Stability [2] | Stability [3] | solubility [4] [µg/mL]
O=C1c2cc3c(cc2N=C[C@@H]2CCCN12)OCCCOc1cc2c(cc1OCCCCCCCO3)C(=O)N1CCC[C@H]1C=N2 | 8.1 | 4.6 | 3.4 |  |  |  |  |  | 
O=C1c2cc3c(cc2N=C[C@@H]2CCCN12)OCCCOc1cc2c(cc1OCCCCCCCCCO3)C(=O)N1CCC[C@H]1C=N2 | 8.7 | 8.3 | 7.3 |  |  |  |  |  | 
O=C1c2cc3c(cc2N=C[C@@H]2CCCN12)OCCCOc1cc2c(cc1OCCCCCCCCCCCCO3)C(=O)N1CCC[C@H]1C=N2 | 109 | 306 | 136 |  |  |  |  |  | 
CN1CCN(c2ccc(C3=CN4C(=O)c5cc6c(cc5N=C[C@@H]4C3)OCCCOc3cc4c(cc3OCCCCCCCCO6)C(=O)N3C=C(c5ccc(N)cc5)C[C@H]3C=N4)cc2)CC1 | 0.024 | 0.486 | 0.385 | 0.016 | 0.015 |  |  |  | 
O=C(CCN1C(=O)C=CC1=O)NCCOCCOCCOCCOCCOCCOCCOCCOCCC(=O)ON1C(=O)CCC1=O |  |  |  |  |  | Unstable | Unstable | Unstable | 
O=C1c2cc3c(cc2N=C[C@@H]2CCCN12)OCCCOc1cc2c(cc1OCCCCCCCCCCO3)C(=O)N1CCC[C@H]1C=N2 | 12 | 22 | 20 |  |  |  |  |  | 
COc1ccc(C2=CN3C(=O)c4cc5c(cc4N=C[C@@H]3C2)OCCCOc2cc3c(cc2OCCCCCCCCO5)C(=O)N2C=C(c4ccc(OC)cc4)C[C@H]2C=N3)cc1 | 0.993 | 0.621 | 1.82 | 0.167 | 1.05 |  |  |  | < 1
O=C1c2cc3c(cc2N=C[C@@H]2CCCN12)OCCCOc1cc2c(cc1OCCCCCCCCCCCO3)C(=O)N1CCC[C@H]1C=N2 | 69 | 146 | 78 |  |  |  |  |  | 
O=C1c2cc3c(cc2N=C[C@@H]2CCCN12)OCCCOc1cc2c(cc1OCCCCCCCCO3)C(=O)N1CCC[C@H]1C=N2 | 1.6 | 2.7 | 1.2 |  |  |  |  |  | 
CN1CCN(c2ccc(C3=CN4C(=O)c5cc6c(cc5N=C[C@@H]4C3)OCCCOc3cc4c(cc3OCCCCCCCCO6)C(=O)N3C=C(c5ccc(N6CCN(C)CC6)cc5)C[C@H]3C=N4)cc2)CC1 | 0.047 | 0.034 | 0.35 | 0.006 | 0.076 |  |  |  | > 698
COc1cc2c(cc1OCCCOc1cc3c(cc1OC)C(=O)N1C=C(c4ccccc4)C[C@H]1C=N3)N=C[C@@H]1CC(c3ccccc3)=CN1C2=O | 0.117 | 0.152 | 0.126 |  |  |  |  |  | 
COc1ccc(C2=CN3C(=O)c4cc5c(cc4N=C[C@@H]3C2)OCCCOc2cc3c(cc2OCCCCCCCCO5)C(=O)N2C=C(c4ccc(N)cc4)C[C@H]2C=N3)cc1 | 0.355 | 0.559 | 0.311 | 0.063 | 0.36 |  |  |  | 
O=C1c2cc3c(cc2N=C[C@@H]2CC(c4ccccc4)=CN12)OCCCOc1cc2c(cc1OCCOCCOCCO3)C(=O)N1C=C(c3ccccc3)C[C@H]1C=N2 | 1.07 | 1.54 | 1.7 | 0.129 | 6.44 |  |  |  | < 1
CC1=CN2C(=O)c3cc4c(cc3N=C[C@@H]2C1)OCCCOc1cc2c(cc1OCCCCCCCCO4)C(=O)N1C=C(c3ccc(N)cc3)C[C@H]1C=N2 | 0.655 | 1.36 | 1.24 | 0.135 | 1.22 |  |  |  | 
COc1cc2c(cc1OCCCOc1cc3c(cc1OC)C(=O)N1CCC[C@H]1C=N3)N=C[C@@H]1CCCN1C2=O [DSB-120] | 70 | 63 | 56 |  |  |  |  |  | 
